{"source": "patent US7754765B2", "about": "“Copper chelators for treating ocular inflammation” (Radical Vision Therapeutics Inc, priority 2000, dated 2010)", "key": {"[1]": {"tested_on": "retina", "experiment": "Retinal thickness (edema) after laser photocoagulation in rats", "format": "in vivo, Long-Evans rats", "settings": "0.5 mmol/kg/day intraperitoneally; for retinal thickness, greater than that in normal retina: saline control 50%; for retinal thickness (edema) compared with control (saline injected), in words: day 1 post photocoagulation"}, "[2]": {"tested_on": "retina", "experiment": "Retinal thickness (edema) after PDT (verteporfin) in rabbits", "format": "in vivo, Pigmented rabbits", "settings": "for retinal thickness, greater than that in normal retina: 24 hours after PDT, 0.2 mmol/kg/day intramuscularly, saline control 140%; for retinal thickness (edema) compared with control (saline injected), in words: day 1 post PDT, TRIEN or TETREN (0.2 mM/day)"}, "[3]": {"tested_on": "ED-1 immunoreactive (macrophage) cells in retina", "experiment": "ED-1 (macrophage) immunostaining of retina after photocoagulation in rats", "format": "in vivo", "settings": "vs saline injected; for number of ED-1 positive retina cells relative to controls (in words): 24 hours after laser treatment; for number of ED-1 positive cells, times less than control: Day 1 post photocoagulation, average of four 40× objective fields"}}, "data": [{"compound": "NCCNCCNCCNCCN", "note": "[TETREN, tetraethylenepentamine]", "values": [{"measurement": "retinal thickness, greater than that in normal retina", "setting": "[1]; 24 hours post photocoagulation", "value": 26, "unit": "%"}, {"measurement": "retinal thickness (edema) compared with control (saline injected), in words", "setting": "[1]", "value": "retinal thickness of eyes from control animals (saline injected) is greater"}, {"measurement": "retinal thickness, greater than that in normal retina", "setting": "[2]", "value": 45, "unit": "%"}, {"measurement": "retinal thickness (edema) compared with control (saline injected), in words", "setting": "[2]", "value": "significantly less than that in control"}, {"measurement": "number of ED-1 positive retina cells relative to controls (in words)", "setting": "[3]", "value": "more than half that of control animals"}, {"measurement": "number of ED-1 positive cells, times less than control", "setting": "[3]", "value": 2.5, "unit": "times"}]}, {"compound": "NCCNCCNCCN", "note": "[TRIEN, triethylenetetramine]", "values": [{"measurement": "retinal thickness, greater than that in normal retina", "setting": "[1]; 24 hours post photocoagulation", "value": 23, "unit": "%"}, {"measurement": "retinal thickness (edema) compared with control (saline injected), in words", "setting": "[1]", "value": "retinal thickness of eyes from control animals (saline injected) is greater"}, {"measurement": "retinal thickness, greater than that in normal retina", "setting": "[2]", "value": 50, "unit": "%"}, {"measurement": "retinal thickness (edema) compared with control (saline injected), in words", "setting": "[2]", "value": "significantly less than that in control"}, {"measurement": "number of ED-1 positive retina cells relative to controls (in words)", "setting": "[3]", "value": "approximately half that of the controls"}, {"measurement": "number of ED-1 positive cells, times less than control", "setting": "[3]", "value": "two times less"}]}, {"compound": "CC(C)(S)[C@@H](N)C(=O)O", "note": "[D-PA, D-penicillamine]", "values": [{"measurement": "retinal thickness, greater than that in the control animals (saline injected)", "setting": "[1]; 24 hours post photocoagulation", "value": 35, "unit": "%"}, {"measurement": "retinal thickness, greater than that in normal retina", "setting": "[1]; 24 hours post photocoagulation", "value": 85, "unit": "%"}, {"measurement": "retinal thickness (edema) compared with control (saline injected), in words", "setting": "[1]", "value": "greater than that in control eyes"}, {"measurement": "retinal thickness (edema) compared with control (saline injected), in words", "setting": "[1]; listed as DPA", "value": "showed the opposite effect"}]}]}
